In patent US9371331B2, “Modulators of methyl modifying enzymes, compositions and uses thereof” (Constellation Pharmaceuticals, Inc., priority 2012, dated 2016):

Key:
EZH2 (rPRC2) = EZH2 (rPRC2) (Homo sapiens, UniProt Q15910); assay: EZH2 assay: rPRC2, biotinylated oligonucleosomes, 3H SAM methyl transfer (FlashPlate scintillation); type: biochemical; details: EZH2 IC50, wild-type EZH2 (rPRC2), biotinylated oligonucleosome substrate
Y641N EZH2 = Y641N EZH2 (Homo sapiens, UniProt Q15910, Y641N); assay: Y641N EZH2 assay: as EZH2 assay, with reconstituted H3K27Me2 oligonucleosomes as substrate; type: biochemical; details: Y641N EZH2 IC50, Y641N mutant EZH2, H3K27Me2 oligonucleosome substrate
[1] = test system: H3K27me3 mark in HeLa cells; assay: H3K27me3 Alpha Hela Assay (AlphaLISA); type: cell-based; details: Homo sapiens, 72 hrs, read-out: H3K27me3_Alpha_HeLa_ (EC50)
Procedure: H3K27me3 Alpha Hela Assay (AlphaLISA).
Ten different doses of each test compound (in a series of 3-fold dilutions) were plated in duplicate 384-well tissue culture treated plates (Catalog #781080; Greiner Bio One; Monroe, N.C.). Hela cells grown in culture were trypsinized and counted using a Countess® cell counter (Catalog #C10281; Life Technologies, Grand Island, N.Y.). Cell were diluted to 67,000 cells per mL in 10% DMEM (Catalog #10569-010 Life Technologies. Grand Island, N.Y.) and 15 μL (1,000 cells) were plated into each well using the Biotek MicroFlo™ Select Dispenser (BioTek Instruments. Inc. Vermont, USA),) of the 384-well plate. Plates were incubated at 37° C./5% CO2 for 72 hrs. One of the duplicate plates was processed for HeLa assay and the other for viability.
To the plate processed for AlphaLISA was added 5 μL per well Cell-Histone Lysis buffer (1×) (Catalog #AL009F1 Perkin Elmer; Waltham, Mass.) and the plate was incubated at RT for 30 minutes on a plate shaker with low speed (Model#4625-Q Thermo Scientific; Waltham, Mass.). Then, 10 µL per well Histone Extraction buffer (catalog #AL009F2: Perkin Elmer; Waltham, Mass.) was added and the plate further incubated at RT for 20 min on plate shaker with low speed. To each well was then added 10 μL per well of a 5× mix of anti-K27me3 acceptor beads plus Biotinylated anti-Histone H3 (C-ter) Antibody (diluted to 3 nM final) (Catalog #AL118 Perkin Elmer; Waltham, Mass.). Dilution of the acceptor beads and then anti-Histone H3 was with 1× Histone Detection buffer (Catalog #AL009F3 Perkin Elmer; Waltham, Mass.) which was produced diluted from the 10× stock provided. The plate was sealed with an aluminum plate sealer and incubated at 23° C. for 60 min. We then added 10 μL 5× solution of Streptavidin Donor beads (Catalog #6760002 Perkin Elmer; Waltham, Mass.) (20 μg/mL final in 1× Histone Detection Buffer), sealed the plate with Aluminum plate sealer and incubated at 23° C. for 30 min. The plates were then read using an EnVision-Alpha Reader (model #2104 Perkin Elmer: Waltham, Mass.).
Data from both assays was analyzed using Assay Assistant (Constellation Pharmaceuticals In-house product) and Activity Base (IDBS Ltd. Surrey, UK) template. Data files were imported to Assay Assistant and assay conditions were specified. A unique Analysis ID was created and the data files exported to Activity Base. An analysis template was created on Activity Base to measure dose-dependent inhibition of H3K27me3 mark and cell viability respectively. Readout of DMSO wells were used to normalize the data. Resulting curves were fitted using Activity base software Model 205 (IDBS Ltd, Surrey, UK). The data was checked for quality, validated and integrated in excel format using SARview (IDBS Ltd, Surrey, UK).

Chain of Y641N EZH2 (Q15910 whole entry Y641N): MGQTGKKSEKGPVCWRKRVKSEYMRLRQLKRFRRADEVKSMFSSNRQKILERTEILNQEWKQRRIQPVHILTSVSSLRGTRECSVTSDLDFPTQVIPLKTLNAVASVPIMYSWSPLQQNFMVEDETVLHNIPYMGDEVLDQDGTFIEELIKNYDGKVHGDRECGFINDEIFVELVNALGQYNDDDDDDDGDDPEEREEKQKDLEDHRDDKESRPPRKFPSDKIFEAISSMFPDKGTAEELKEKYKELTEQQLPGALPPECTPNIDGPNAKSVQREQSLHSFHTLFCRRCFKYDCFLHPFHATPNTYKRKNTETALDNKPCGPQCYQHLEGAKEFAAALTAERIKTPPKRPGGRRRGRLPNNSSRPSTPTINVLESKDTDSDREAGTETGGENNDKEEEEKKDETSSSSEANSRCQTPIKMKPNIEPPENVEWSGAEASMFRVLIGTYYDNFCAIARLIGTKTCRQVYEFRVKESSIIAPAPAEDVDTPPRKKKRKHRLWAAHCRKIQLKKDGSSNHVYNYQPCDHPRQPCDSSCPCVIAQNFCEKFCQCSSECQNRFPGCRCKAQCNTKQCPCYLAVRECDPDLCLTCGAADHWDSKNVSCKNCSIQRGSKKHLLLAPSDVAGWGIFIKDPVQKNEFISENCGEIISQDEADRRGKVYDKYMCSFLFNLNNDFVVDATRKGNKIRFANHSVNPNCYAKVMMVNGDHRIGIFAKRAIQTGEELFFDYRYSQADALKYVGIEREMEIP
Chain of Y641N EZH2 (O75530 whole entry partner): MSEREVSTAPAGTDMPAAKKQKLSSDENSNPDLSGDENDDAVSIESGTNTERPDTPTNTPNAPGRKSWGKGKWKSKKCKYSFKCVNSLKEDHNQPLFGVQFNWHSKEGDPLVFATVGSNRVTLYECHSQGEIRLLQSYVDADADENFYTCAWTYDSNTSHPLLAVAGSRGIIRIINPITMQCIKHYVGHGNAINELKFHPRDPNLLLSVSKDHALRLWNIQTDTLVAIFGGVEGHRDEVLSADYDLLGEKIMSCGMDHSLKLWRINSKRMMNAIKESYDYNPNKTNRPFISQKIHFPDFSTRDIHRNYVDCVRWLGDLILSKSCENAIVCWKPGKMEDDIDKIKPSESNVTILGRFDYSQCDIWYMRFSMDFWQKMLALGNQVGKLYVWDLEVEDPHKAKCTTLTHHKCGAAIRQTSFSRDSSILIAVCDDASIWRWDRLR
Chain of Y641N EZH2 (Q15022 whole entry partner): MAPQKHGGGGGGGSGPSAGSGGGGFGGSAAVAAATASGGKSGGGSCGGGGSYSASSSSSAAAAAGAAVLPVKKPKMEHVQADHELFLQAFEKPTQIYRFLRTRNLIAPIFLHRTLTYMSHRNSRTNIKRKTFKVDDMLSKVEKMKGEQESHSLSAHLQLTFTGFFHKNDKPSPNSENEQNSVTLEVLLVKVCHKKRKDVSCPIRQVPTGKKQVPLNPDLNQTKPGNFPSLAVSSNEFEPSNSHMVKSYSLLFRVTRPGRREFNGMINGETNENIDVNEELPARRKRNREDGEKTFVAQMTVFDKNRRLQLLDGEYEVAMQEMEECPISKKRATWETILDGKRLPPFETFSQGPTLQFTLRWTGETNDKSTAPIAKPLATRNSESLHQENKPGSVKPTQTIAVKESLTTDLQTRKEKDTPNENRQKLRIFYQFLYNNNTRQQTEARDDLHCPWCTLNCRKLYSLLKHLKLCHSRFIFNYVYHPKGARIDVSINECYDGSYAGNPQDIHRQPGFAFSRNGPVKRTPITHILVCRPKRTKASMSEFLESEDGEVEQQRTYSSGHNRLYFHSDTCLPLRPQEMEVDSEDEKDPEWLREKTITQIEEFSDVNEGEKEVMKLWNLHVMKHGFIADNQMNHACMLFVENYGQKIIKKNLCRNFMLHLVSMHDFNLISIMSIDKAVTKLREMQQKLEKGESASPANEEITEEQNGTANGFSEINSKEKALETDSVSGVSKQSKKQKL
Chain of EZH2 (rPRC2) (Q15910 whole entry): as the sequence (Q15910 whole entry Y641N) above, with N641Y counted along it
Chain of EZH2 (rPRC2) (O75530 whole entry partner): as the sequence (O75530 whole entry partner) above
Chain of EZH2 (rPRC2) (Q15022 whole entry partner): as the sequence (Q15022 whole entry partner) above

Compound	IC50 (EZH2 (rPRC2)) [nM]	IC50 (Y641N EZH2) [nM]	EC50 [1] [nM]
Cc1cc(OC(F)F)c(CNC(=O)c2c(C)n(C(C)C3CCOCC3)c3ccccc23)c(=O)[nH]1 (single isomer, unassigned) [Compound 335, (R or S)-N-((4-(difluoromethoxy)-6-methyl-2-oxo-1,2-dihydropyridin-3-yl)methyl)-2-methyl-1-(1-(tetrahydro-2 H-pyran-4-yl)ethyl)-1 H-indole-3-carboxamide]	< 100	< 100	< 400
COc1cc(C)[nH]c(=O)c1CNC(=O)c1c(C)n(C(C)C2CCN(C)CC2)c2ccccc12 (single isomer, unassigned) [Compound 343, (R or S)-N-((4-methoxy-6-methyl-2-oxo-1,2-dihydropyridin-3-yl)methyl)-2-methyl-1-(1-(1-methylpiperidin-4-yl)ethyl)-1H-indole-3-carboxamide]	< 100	< 100	400 to 2000
CCS(=O)(=O)C1(C(C)n2c(C)c(C(=O)NCc3c(OC)cc(C)[nH]c3=O)c3ccccc32)CCNCC1 (single isomer, unassigned) [Compound 345, (R or S)-1-(1-(4-(ethylsulfonyl)piperidin-4-yl)ethyl)-N-((4-methoxy-6-methyl-2-oxo-1,2-dihydropyridin-3-yl)methyl)-2-methyl-1 H-indole-3-carboxamide]	< 100	< 100	< 400
COc1cc(C)[nH]c(=O)c1CNC(=O)c1c(C)n(C(C)C2CCN(C(=O)OC(C)C)CC2)c2ccccc12 (single isomer, unassigned) [Compound 346, (R or S)-isopropyl 4-(1-(3-((4-methoxy-6-methyl-2-oxo-1,2-dihydropyridin-3-yl)methylcarbamoyl)-2-methyl-1H-indol-1-yl)ethyl)piperidine-1-carboxylate]	< 100	< 100	< 400
COc1cc(C)[nH]c(=O)c1CNC(=O)c1c(C)n(C(C)C2CCN(CCO)CC2)c2ccccc12 (single isomer, unassigned) [Compound 347, (R or S)-1-(1-(1-(2-hydroxyethyl)piperidin-4-yl)ethyl)-N-((4-methoxy-6-methyl-2-oxo-1,2-dihydropyridin-3-yl)methyl)-2-methyl-1H-indole-3-carboxamide]	< 100	< 100	400 to 2000
COc1cc(C)[nH]c(=O)c1CNC(=O)c1c(C)n(C(C)C2CCN(CC(C)(C)O)CC2)c2ccccc12 (single isomer, unassigned) [Compound 352, (R or S)-1-(1-(1-(2-hydroxy-2-methylpropyl)piperidin-4-yl)ethyl)-N-((4-methoxy-6-methyl-2-oxo-1,2-dihydropyridin-3-yl)methyl)-2-methyl-1H-indole-3-carboxamide]	< 100	< 100	400 to 2000
COc1cc(C)[nH]c(=O)c1CNC(=O)c1c(C)n(C(C)C2CCC(S(=O)(=O)C(C)C)CC2)c2ccccc12 (single isomer, unassigned) [Compound 355, (R or S)-1-(1-(4-(isopropylsulfonyl)cyclohexyl)ethyl)-N-((4-methoxy-6-methyl-2-oxo-1,2-dihydropyridin-3-yl)methyl)-2-methyl-1 H-indole-3-carboxamide]	< 100	< 100	< 400
COc1cc(C)[nH]c(=O)c1CNC(=O)c1c(C)n(C(C)C2CCN(CCF)CC2)c2ccccc12 (single isomer, unassigned) [Compound 356, (R or S)-1-(1-(1-(2-fluoroethyl)piperidin-4-yl)ethyl)-N-((4-methoxy-6-methyl-2-oxo-1,2-dihydropyridin-3-yl)methyl-2-methyl-1H-indole-3-carboxamide]	< 100	< 100	< 400
COc1cc(C)[nH]c(=O)c1CNC(=O)c1c(C)n(C(C)C2CCN(C(=O)OCC(C)C)CC2)c2ccccc12 (single isomer, unassigned) [Compound 357, (R or S)-isobutyl 4-(1-(3-(((4-methoxy-6-methyl-2-oxo-1,2-dihydropyridin-3-yl)methyl)carbamoyl)-2-methyl-1 H-indol-1-yl)ethyl)piperidine-1-carboxylate]	< 100	< 100	< 400
COc1cc(C)[nH]c(=O)c1CNC(=O)c1c(C)n(C(C)C2CCN(C(C)C)CC2)c2ccccc12 (single isomer, unassigned) [Compound 358, (R or S)-1-(1-(1-isopropylpiperidin-4-yl)ethyl)-N-((4-methoxy-6-methyl-2-oxo-1,2-dihydropyridin-3-yl)methyl)-2-methyl-1H-indole-3-carboxamide]	< 100	< 100	400 to 2000
CCN1CCC(C(C)n2c(C)c(C(=O)NCc3c(OC)cc(C)[nH]c3=O)c3ccccc32)CC1 (single isomer, unassigned) [Compound 360, (R or S)-1-(1-(1-ethylpiperidin-4-yl)ethyl)-N-((4-methoxy-6-methyl-2-oxo-1,2-dihydropyridin-3-yl)methyl)-2-methyl-1 H-indole-3carboxamide]	< 100	< 100	2000 to 10000
COc1cc(C)[nH]c(=O)c1CNC(=O)c1c(C)n(C(C)C2CCN(c3ncccn3)CC2)c2ccccc12 (single isomer, unassigned) [Compound 361, (R or S)—N-((4-methoxy-6-methyl-2-oxo-1,2-dihydropyridin-3-yl)methyl)-2-methyl-1-(1-1-(pyrimidin-2-yl)piperidin-4-yl)ethyl)-1H-indole-3-carboxamide]	< 100	< 100	< 400
COc1cc(C)[nH]c(=O)c1CNC(=O)c1c(C)n(C(C)C2CCN(CC(F)F)CC2)c2ccccc12 (single isomer, unassigned) [Compound 362, (R or S)-1-(1-(1-(2,2-difluoroethyl)piperidin-4-yl)ethyl)-N-((4-methoxy-6-methyl-2-oxo-1,2-dihydropyridin-3-yl)methyl)-2-methyl-1H-indole-3-carboxamide]	< 100	< 100	< 400
CCOC(=O)CN1CCC(C(C)n2c(C)c(C(=O)NCc3c(OC)cc(C)[nH]c3=O)c3ccccc32)CC1 (single isomer, unassigned) [Compound 363, (R or S)-ethyl 2-(4-(1-(3-(((4-methoxy-6-methyl-2-oxo-1,2-dihydropyridin-3-yl)methyl)carbamoyl)-2-methyl-1 H-indol-1-yl)ethyl)piperidin-1-yl)acetate]	< 100	< 100	< 400
Cc1cc(C)c(CNC(=O)c2c(C)n(C(C)C3CCN(CC(C)(C)O)CC3)c3ccccc23)c(=O)[nH]1 (single isomer, unassigned) [Compound 369, (R or S)-N-((4,6-dimethyl-2-oxo-1,2-dihydropyridin-3-yl)methyl)-1-(1-(1-(2-hydroxy-2-methylpropyl)piperidin-4-yl)ethyl)-2-methyl-1H-indole-3-carboxamide]	< 100	< 100	< 400
COc1cc(C)[nH]c(=O)c1CNC(=O)c1c(C)n(C(C)C2CCN(c3ccccn3)CC2)c2ccccc12 (single isomer, unassigned) [Compound 373]	< 100	< 100	< 400
COc1cc(C)[nH]c(=O)c1CNC(=O)c1c(C)n(C(C)C2CCOCC2)c2cc(-c3ccccc3)ccc12 (single isomer, unassigned) [Compound 374, (R or S)—N-((4-methoxy-6-methyl-2-oxo-1,2-dihydropyridin-3-yl)methyl)-2-methyl-6-phenyl-1-(1-(tetrahydro-2H-pyran-4-yl)ethyl)-1H-indole-3-carboxamide]	< 100	< 100	< 400
